Test results published in US6046212A, “Chalcone derivatives and drugs containing the same” (Kowa Co., Ltd., priority 1996, dated 2000).
Structures can show the parent of a compound that is named as a salt. Where two headings read alike, the source gives them in different places.

Experiments:
airway constriction = details: cited from earlier work
Leukotriene D4 Receptor = target: T1, Leukotriene D4 Receptor (Cavia porcellus, UniProt Q2NNR5); experiment: Leukotriene D4 Receptor Binding Inhibition Test; parameters: species or system guinea pig; details: for inhibition at 10 µM: read-out: LTD4 receptor, inhibition rate (%) at a high concentration
T1 construct: guinea pig pulmomembranous protein; from tissue; host or cells: guinea pig lung membranes
T1 sequence (Q2NNR5 1-340): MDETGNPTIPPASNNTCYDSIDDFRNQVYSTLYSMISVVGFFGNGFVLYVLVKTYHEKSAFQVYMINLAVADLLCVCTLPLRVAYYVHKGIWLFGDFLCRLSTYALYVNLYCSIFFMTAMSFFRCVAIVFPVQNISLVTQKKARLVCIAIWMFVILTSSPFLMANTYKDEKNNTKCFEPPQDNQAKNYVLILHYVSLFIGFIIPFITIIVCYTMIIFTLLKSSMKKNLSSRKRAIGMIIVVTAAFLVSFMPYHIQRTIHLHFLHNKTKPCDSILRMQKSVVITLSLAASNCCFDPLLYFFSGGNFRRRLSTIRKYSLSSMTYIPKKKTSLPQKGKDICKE
Experimental: An ice-cold tris hydrochloride/sodium chloride buffer (10 mM/100 mM, pH 7.5) was added to terminate the reaction, followed by immediate filtration through a Wattman CF/C filter. The filter was washed twice with 20 ml aliquots of the ice-cold buffer. The radio-activity of the residue was measured by a liquid scintillation counter. […] Using the Cheng-Prusoff formula, a dissociation constant (KD) was calculated from the IC50.

[1] = tested on: isolated guinea pig ileum; experiment: Antileukotriene D4 Action (In vitro Test): isotonic contractive response of isolated ileum to leukotriene D4; assay type: cell-based; details: Cavia porcellus, 0.5 h, Krebs buffer 37° C., 30 minutes incubation with test compound, read-out: Anti-LTD4 action (IC50 value)
Experimental: Antileukotriene D4 Action (In vitro Test)
An isolated guinea pig ileum was cut into about 2 cm lengths. Each ileum piece was suspended in a 20-ml organ bath filled with the Krebs buffer. […] The Krebs buffer was controlled at 37° C., through which a mixed gas (95%O2 -5%CO2) was bubbled. First, leukotriene D4 was added to an organ bath to measure its dose-response. After the ileum piece was washed several times with the buffer, a test compound (will be identified by its example number; this will apply likewise hereinafter) of a predetermined specific concentration was added.

[2] = read-out: LTD4 receptor, dissociation constant KD

For `CCCCC/C=C\C\C=C/C=C/C=C/[C@@H](SC[C@H](NC(=O)CC[C@H](N)C(=O)O)C(=O)NCC(=O)O)[C@@H](O)CCCC(=O)O` [LTC4], the “effects on airway constriction relative to histamine” value (airway constriction; when inhaled, compared with histamine) is listed as 1,000 times.

`O=C(/C=C/c1ccc(OCc2ccc3ccccc3c2)cc1)c1cc(-c2nnn[nH]2)ccc1O` [Example 26, 2'-Hydroxy-4-(2-naphthyl-methoxy)-5'-(5-tetrazolyl)-chalcone] gave an inhibition at 10 µM (Leukotriene D4 Receptor) of 4%.

With `O=C(O)c1cccc(C(=O)/C=C/c2cccc(C=Cc3ccc4ccccc4n3)c2)c1O` [Example 40, 3'-carboxy-2'-hydroxy-3-[(2-quinolyl)-ethenyl]chalcone] the IC50 [1] was 0.12 µM.

For “[^3 H]leukotriene D4 [reference compound]”, the “slope of Hill plot” value (Leukotriene D4 Receptor; [^3 H]leukotriene D4 binding) was 0.99 and the Kd (Leukotriene D4 Receptor; read-out: dissociation constant (KD) of [^3 H]leukotriene D4, radioligand, guinea pig pulmomembranous protein) was 0.000262 µM.

In the case of `O=C(O)c1cc(F)cc(C(=O)/C=C/c2ccc(OCc3ccc4ccccc4n3)cc2)c1O` [Example 8, 3'-Carboxy-5'-fluoro-2'-hydroxy-4-[(2-quinolyl)methoxy]chalcone], the Kd (Leukotriene D4 Receptor; [2]) is reported as 0.396 µM.

With `N#Cc1cccc(C(=O)/C=C/c2cccc(OCc3ccc4ccccc4n3)c2)c1` [Example 36, 3'-Cyano-3-(2-quinolylmethoxy)-chalcone] the inhibition at 10 µM (Leukotriene D4 Receptor) was 6%.

For `O=C(O)c1cc(Cl)cc(C(=O)/C=C/c2ccc(OCc3ccc4ccccc4n3)cc2)c1O` [Example 9, 3'-Carboxy-5'-chloro-2'-hydroxy-4-[(2-quinolyl)methoxy]chalcone], the Kd (Leukotriene D4 Receptor; [2]) was 0.732 µM.

`CCOCCn1c(COc2ccc(C=CC(=O)c3cc(-c4nn[nH]n4)ccc3O)cc2)nc2ccccc21` [Example 23] showed an IC50 [1] of 0.48 µM.

`CCOC(=O)c1ccc(O)c(C(=O)C=Cc2ccc(OCc3ccc4ccccc4n3)cc2)c1` [Example 17] gave an inhibition at 10 µM (Leukotriene D4 Receptor) of 16%.

`O=C(O)c1ccc(O)c(C(=O)/C=C/c2ccc(OCc3ccccc3)cc2)c1` [Example 4, 4-Benzyloxy-5'-carboxy-2'-hydroxychalcone] showed an inhibition at 10 µM (Leukotriene D4 Receptor) of 23%.

In the case of `CCCCC/C=C\C\C=C/C=C/C=C/[C@@H](SC[C@H](N)C(=O)O)[C@@H](O)CCCC(=O)O` [LTE4], the “duration of airway constriction” value (airway constriction; compared with that caused by the other leukotrienes) is given as “long lasting” and the “activity compared with the other leukotrienes” value (airway constriction; compared with the other leukotrienes) is given as “lower activities”.

With `O=C(O)c1ccc(O)c(C(=O)/C=C/c2ccccc2OCc2ccc3ccccc3n2)c1` [Example 3, 5'-Carboxy-2'-hydroxy-2-[(2-quinolyl)methoxy]chalcone] the inhibition at 10 µM (Leukotriene D4 Receptor) was 18%.

Work on `CCOCCn1c(COc2cccc(C=CC(=O)c3ccc(C(=O)O)cc3O)c2)nc2ccccc21` [Example 37, 4'-Carboxy-3-[(1-ethoxyethyl-benzimidazol-2-yl)methoxy]-2'-hydroxychalcone.HCl] yielded an inhibition at 10 µM (Leukotriene D4 Receptor) of 26%.

`N#Cc1ccc(O)c(C(=O)/C=C/c2cccc(OCc3ccc4ccccc4n3)c2)c1` [Example 58, 5'-Cyano-2'-hydroxy-3-[(2-quinolyl)methoxy]chalcone] gave an inhibition at 10 µM (Leukotriene D4 Receptor) of 38%.

`N#Cc1cccc(C(=O)/C=C/c2ccc(OCc3ccc4ccccc4n3)cc2)c1` [Example 35, 3'-cyano-4-(2-quinolylmethoxy)-chalcone] gave an inhibition at 10 µM (Leukotriene D4 Receptor) of 8%.

For `O=C(O)c1cccc(C(=O)/C=C/c2ccc(OCc3ccc4ccccc4n3)cc2)c1O` [Example 7, 3'-Carboxy-2'-hydroxy-4-[(2-quinolyl)methoxy]chalcone], the Kd (Leukotriene D4 Receptor; [2]) was 0.307 µM.

With `O=C(O)c1ccc(O)c(C(=O)/C=C/c2ccccc2OCc2ccccc2)c1` [Example 6, 2-Benzyloxy-5'-carboxy-2'-hydroxychalcone] the inhibition at 10 µM (Leukotriene D4 Receptor) was 0%.

`O=C(/C=C/c1ccc(OCc2ccc3ccccc3n2)cc1)c1cc(-c2nnn[nH]2)ccc1O` [Example 19, 2'-Hydroxy-4-[(2-quinolyl)-methoxy]-5'-(5-tetrazolyl)-chalcone] gave an IC50 [1] of 0.067 µM.

`COc1ccc(C(=O)O)cc1C(=O)/C=C/c1ccc(OCc2ccc3ccccc3n2)cc1` [Example 29, 5'-Carboxy-2'-methoxy-4-[(2-quinolyl)methoxy]chalcone] showed an IC50 [1] of 0.29 µM.

`CCCCOc1ccc(C(=O)O)cc1C(=O)C=Cc1ccc(OCc2ccc3ccccc3n2)cc1` [Example 32, 2'-n-Butoxy-5'-carboxy-4-(2-quinolylmethoxy)chalcone.HCl] gave an inhibition at 10 µM (Leukotriene D4 Receptor) of 41%.
